# Measurements from patent publication US11371994B2, “Phosphorylated Akt-specific capture agents, compositions, and methods of using and making” (California Institute of Technology, priority 2013, dated 2022).
# pEC50: −log10 of the molar value. Square brackets hold non-standard residues; d marks the D form. Ends that are not written are not given here. dPra = C#CC[C@@H](N)C(=O)O
# Biological target: Akt2 (Homo sapiens, UniProt P31751)
# Assay: Single component ELISA, PCC agent as capture or detection agent (relative affinity)
# Assay type: binding
# Set-up: purchased Abcam
# Conditions: relative affinity; read-out: affinity by single-component immunoassay
# From the text: FIG. 23: A. ELISA assays in which the PCC Agents are utilized as either as surface-localized capture agents (for N-tL, C-tL) or as the detection agent (for mono-L, bi-L). Such assays provide relative affinity measurements, which are given as EC50 values in the key. […] C. C-tL distinguishes the full length Akt2 from isoform proteins Akt1 and Akt3. D. The 32 amino acid long C terminal fragment from Akt2, Akt1 and Akt3. The hydrophobic motif is highlighted in blue. pS refers to phospho-serine. […] F. Selectivity assays: Biotinylated ligands or biotinylated pS473 antibody is immobilized on streptavidin-agarose and treated with OVCAR3 cell lysate. The eluents are stained with a pan-Akt antibody or pS473 Akt antibody.
# 1.25 μM biotinylated ligand was prepared by diluting the 1 mM stock in binding buffer (25 mM tris chloride, pH=7.4, 150 mM NaCl, 0.1% BSA, 0.05% Tween 20). The prepared ligand solution or 0.125% DMSO in buffer (buffer control) was immobilized on a High Capacity Streptavidin 96 well plate (Thermo Scientific). After washing away the excess ligand, the plate was blocked overnight with 1% BSA/25 mM tris chloride, pH=7.4/150 mM NaCl, 0.05% Tween 20. 2.5 μM solutions of the His6 (SEQ ID NO:28) tagged target phosphopeptide epitope Akt2 amino acids 450-481, His6 (SEQ ID NO:28) tagged Akt1 amino acids 449-480, His6 (SEQ ID NO:28) tagged Akt3 amino acids 448-479 were added to each of the wells. Following three washes with the binding buffer, the plate was treated for an hour with a 1:1000 dilution of anti His6 (SEQ ID NO:28) mouse monoclonal antibody. A 1:10,000 dilution of goat anti mouse antibody-Horse Radish Peroxide conjugate in binding buffer was added to the wells. The plates were washed four times, five minutes each, with 0.05% Tween 20/TBS (25 mM tris chloride, pH=7.5, 150 mM NaCl) and once with TBS (25 mM tris chloride, pH=7.5, 150 mM NaCl). Color was developed by adding TMB substrate (KPL) to each well. The reaction was quenched with 0.5 M H2SO4. The A450 measured on a 96-well plate reader. The Net A450 was obtained by subtracting the absorbance value for the blank control (no immobilized ligand) from each of the triplicate values obtained for the ligand-epitope interaction. The selectivity assay with full length His6 (SEQ ID NO:28) tagged Akt1, Akt2 and Akt3 was performed following the same protocol, using 25 nM protein instead of 2.5 μM His6 tagged peptide epitope.
# Akt2, sequence (P31751 whole entry): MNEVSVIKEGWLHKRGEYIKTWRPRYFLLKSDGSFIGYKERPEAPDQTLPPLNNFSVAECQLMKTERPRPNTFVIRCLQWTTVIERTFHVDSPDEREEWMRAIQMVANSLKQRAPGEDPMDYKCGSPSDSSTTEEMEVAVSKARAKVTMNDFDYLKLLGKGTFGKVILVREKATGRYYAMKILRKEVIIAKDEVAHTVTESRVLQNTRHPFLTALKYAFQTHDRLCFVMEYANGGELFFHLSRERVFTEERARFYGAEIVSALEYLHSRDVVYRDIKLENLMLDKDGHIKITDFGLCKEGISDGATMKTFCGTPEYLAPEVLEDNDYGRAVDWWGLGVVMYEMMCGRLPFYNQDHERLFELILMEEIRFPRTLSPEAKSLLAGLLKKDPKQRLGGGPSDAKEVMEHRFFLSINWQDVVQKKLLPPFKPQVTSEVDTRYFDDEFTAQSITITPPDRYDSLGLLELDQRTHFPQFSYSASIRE
row,pEC50,Molecule
1,~6.00,CC(=O)NC(CCCCn1cc(C[C@@H](NC(=O)CCCCn2cc(C[C@@H](NC(=O)[C@@H](Cc3ccccc3)NC(=O)[C@@H](Cc3ccc(O)cc3)NC(=O)CNC(=O)[C@@H](CC(N)=O)NC(=O)[C@H](N)Cc3c[nH]cn3)C(=O)O)nn2)C(=O)N[C@H](Cc2c[nH]c3ccccc23)C(=O)N[C@H](CCCCN)C(=O)N[C@@H](C(=O)N[C@H](CCCCN)C(=O)N[C@H](CC(C)C)C(N)=O)C(C)C)nn1)C(=O)NCCOCCOCCOCCC(=O)NCCNC(=O)CCCC[C@@H]1SC[C@@H]2NC(=O)N[C@@H]21 (stereo partly shown) [bi-L]
2,~5.52,CC(=O)NC(CCCCn1cc(C[C@@H](NC(C)=O)C(=O)N[C@H](Cc2c[nH]c3ccccc23)C(=O)N[C@H](CCCCN)C(=O)N[C@@H](C(=O)N[C@H](CCCCN)C(=O)N[C@H](CC(C)C)C(N)=O)C(C)C)nn1)C(=O)NCCOCCOCCOCCC(=O)NCCNC(=O)CCCC[C@@H]1SC[C@@H]2NC(=O)N[C@@H]21 (stereo partly shown) [mono-L]

# Biological target: T1, Akt (Homo sapiens, UniProt P31751)
# T1 construct: endogenous in cells; host or cells: OVCAR3
# T1 sequence (P31751 whole entry): as above
# Assay: OVCAR3 lysate pull-down (immunoprecipitation) assay
# Assay type: binding
# Conditions: eluents stained with pan-Akt antibody
# Experimental: OVCAR3 cells (ATCC) were grown in RPMI-1640 media containing 20% fetal bovine serum. Passage three cells were grown to ˜80% confluence. Cells were lysed with lysis buffer (10 mM Tris-Cl (pH=7.5), 100 mM NaCl, 1% (v/v) Triton X-100, 0.1% SDS (w/v), 0.5% deoxycholate, 1 mM DTT, 1 mM EDTA, 1× PhosStop phosphatase inhibitors (Roche), 1× Complete protease inhibitors (Roche)) and the amount of protein measured using BCA Protein Assay Kit (Pierce Biotechnologies, Inc). Streptavidin-agarose resin solution (EMD) was swelled in TBST (25 mM tris chloride, pH=7.5, 150 mM NaCl, 0.05% Tween-20). Each of the biotinylated ligands was immobilized on the Streptavidin-agarose resin by adding 7.2 μL of 1 mM ligand stock (DMSO) to 10 μL of the swelled streptavidin-agarose resin. For the blank control, the resin was treated with 7.2 μL of 1 mM biotinylated acyl glycine. […] After shaking overnight at 4° C., 50 μM D-biotin was added to the resin to block any remaining sites. The resin was washed with TBST five times, for fifteen minutes each. The resin was then swelled in binding buffer for two hours. To each of the immobilized ligands, 200 μL OVCAR3 cell lysate (1.9 mg/ml) was added. The tubes were shaken at 4° C. for 18 hours. The beads were extensively washed, three times for fifteen minutes in binding buffer, three times (fifteen minutes) in TBST, and three times (fifteen minutes) in TBS to remove unbound proteins. The resin bound proteins were eluted by adding 40 μL of 2×SDS-PAGE sample loading buffer (BioRad) and heating at 95° C. for five minutes. A 1:10 diluted sample of lysate in sample loading buffer was prepared by mixing 1 μL of the sample with 9 μL sample loading buffer and denaturing the sample by heating at 95° C. for five minutes. 10 μL of each sample was loaded on a 12% SDS-PAGE gels (BioRad) and run for 80 minutes at 110 volts. Three identical gels were loaded and run at the same time. One gel was used for Coomassie staining with Coomassie Fluor Orange Protein Gel Stain (Molecular Probes) following the manufacturer's protocol. The two other gels were transferred to nitrocellulose membranes by the semidry transfer method, blocked for two hours at 4° C. with 5% non-fat milk, and treated overnight at 4° C. with a 1:1000 dilution of pan-Akt rabbit monoclonal antibody (Cell Signaling Technology) and a 1:1000 dilution of pS473 Akt rabbit monoclonal antibody (Cell Signaling Technology), respectively, in 0.5% non-fat milk. The membranes were washed and treated for an hour with a 1:10,000 dilution of monoclonal mouse anti-rabbit-HRP secondary antibody (Cell Signaling Technology) in 0.5% milk. After five washes of five minutes each with TBST and one wash of five minutes with TBS, the blots were developed with West Dura ECL substrate (Thermo Scientific) and imaged on film.
row,immunoprecipitation of Akt from OVCAR3 cell lysate,Molecule
1,did not show any Akt pulldown,Bi5: biligand candidate with hnGii-(D-Pra) as the 2° peptide arm (peptide 1 [dPra][dW][dK][dV][dK][dL]; peptide 2 [dH][dN]G[dI][dI][dPra]; not fully specified (bridges))
2,did not show any Akt pulldown,Bi6: biligand candidate with hnGGd-(D-Pra) as the 2° peptide arm (peptide 1 [dPra][dW][dK][dV][dK][dL]; peptide 2 [dH][dN]GG[dD][dPra]; not fully specified (bridges))
3,immunoprecipitate Akt2 from OVCAR3 cells,N-tri2: N terminal triligand candidate: (D-Pra)-ssGry clicked to anchor-3N (peptide 1 [dW][dK][dV][dK][dL]; peptide 2 [dH][dN]G[dY][dF]; peptide 3 [dPra][dS][dS]G[dR][dY]; not fully specified (bridges); also: arms clicked by triazole to anchor-3N scaffold (not listed))

row,Molecule,immunoprecipitation of Akt from OVCAR3 cell lysate
1,CC(=O)NC(CCCCn1cc(C[C@@H](NC(C)=O)C(=O)N[C@H](Cc2c[nH]c3ccccc23)C(=O)N[C@H](CCCCN)C(=O)N[C@@H](C(=O)N[C@H](CCCCN)C(=O)N[C@H](CC(C)C)C(N)=O)C(C)C)nn1)C(=O)NCCOCCOCCOCCC(=O)NCCNC(=O)CCCC[C@@H]1SC[C@@H]2NC(=O)N[C@@H]21 (stereo partly shown) [mono-L],sufficient selectivity to immunoprecipitate Akt from OVCAR3 cancer cell lysate

# Same assay, conditions: eluents stained with pan-Akt antibody; listed as Bi2
row,immunoprecipitation of Akt from OVCAR3 cell lysate,Molecule
1,best candidate,CC(=O)NC(CCCCn1cc(C[C@@H](NC(=O)CCCCn2cc(C[C@@H](NC(=O)[C@@H](Cc3ccccc3)NC(=O)[C@@H](Cc3ccc(O)cc3)NC(=O)CNC(=O)[C@@H](CC(N)=O)NC(=O)[C@H](N)Cc3c[nH]cn3)C(=O)O)nn2)C(=O)N[C@H](Cc2c[nH]c3ccccc23)C(=O)N[C@H](CCCCN)C(=O)N[C@@H](C(=O)N[C@H](CCCCN)C(=O)N[C@H](CC(C)C)C(N)=O)C(C)C)nn1)C(=O)NCCOCCOCCOCCC(=O)NCCNC(=O)CCCC[C@@H]1SC[C@@H]2NC(=O)N[C@@H]21 (stereo partly shown) [bi-L]

# Same assay, conditions: eluents stained with pan-Akt antibody; listed as biligand
row,Molecule,immunoprecipitation of Akt from OVCAR3 cell lysate
1,CC(=O)NC(CCCCn1cc(C[C@@H](NC(=O)CCCCn2cc(C[C@@H](NC(=O)[C@@H](Cc3ccccc3)NC(=O)[C@@H](Cc3ccc(O)cc3)NC(=O)CNC(=O)[C@@H](CC(N)=O)NC(=O)[C@H](N)Cc3c[nH]cn3)C(=O)O)nn2)C(=O)N[C@H](Cc2c[nH]c3ccccc23)C(=O)N[C@H](CCCCN)C(=O)N[C@@H](C(=O)N[C@H](CCCCN)C(=O)N[C@H](CC(C)C)C(N)=O)C(C)C)nn1)C(=O)NCCOCCOCCOCCC(=O)NCCNC(=O)CCCC[C@@H]1SC[C@@H]2NC(=O)N[C@@H]21 (stereo partly shown) [bi-L],higher selectivity to immunopreciptate Akt from OVCAR3 cell lysate

# Tested on: mouse anti His6 antibody and anti mouse-alkaline phosphatase
# Assay: Elimination of peptide binders to antibody, on-bead BCIP colour test
# Assay type: binding
# Conditions: colour intensity of beads; clear beads are not background binders
# Experimental: Since a preclear screen was not performed against the mouse-Anti His6 antibody and the anti-mouse-alkaline phosphatase antibody, to eliminate peptide binders to the antibodies, all the dark colored peptide hits obtained in the earlier target screen were synthesized on Tentagel-S—NH2 resin. 10 beads of each sequence was taken in spinnex tubes, equilibrated in binding buffer, and then treated with a 1:1000 diluted solution of mouse anti His6 antibody (Abcam) for an hour at 4° C. Following three five minute washes with the binding buffer, a 1:10,000 diluted solution of anti mouse-alkaline phosphatase was added and the shaken for one hour at 4° C. The beads were washed three times for five minutes each with wash buffer 3, followed by three five minute washes with wash buffer 4. The beads were then developed in BCIP solution for thirty minutes and quenched with 0.1 N HCl. The color intensity of the different sequences is recorded in Table 5, along with the probability that the sequence is a binder to the protein and not a background binder (clear beads). The probability arises from the poor resolution of certain amino acid standards in the Edman sequencer during sequencing the hits from the N terminal triligand target screen.
row,Molecule,Color
1,"(D-Pra)-ssGry ([dPra][dS][dS]G[dR][dY]) [SEQ ID NO: 14, on-bead 3° peptide hit of N-tL screen]",No color
2,"SEQ ID NO: 53: on-bead peptide D-Pra-sfrrf, hit of N-tL screen ([dPra][dS][dF][dR][dR][dF])",light
3,"SEQ ID NO: 58: on-bead peptide D-Pra-rriyy, hit of N-tL screen ([dPra][dR][dR][dI][dY][dY])",dark
4,"SEQ ID NO: 65: on-bead peptide D-Pra-rnrfr, hit of N-tL screen ([dPra][dR][dN][dR][dF][dR])",medium

# Second part, the molecule after the results:
row,Color,Molecule
1,No color,"(D-Pra)-yyrfG ([dPra][dY][dY][dR][dF]G) [SEQ ID NO: 13, on-bead 3° peptide hit of N-tL screen]"
2,light,"SEQ ID NO: 52: on-bead peptide D-Pra-yvyrf, hit of N-tL screen ([dPra][dY][dV][dY][dR][dF])"
3,light,"SEQ ID NO: 60: on-bead peptide D-Pra-kfqfr, hit of N-tL screen ([dPra][dK][dF][dQ][dF][dR])"
4,light,"SEQ ID NO: 61: on-bead peptide D-Pra-lfqfr, hit of N-tL screen ([dPra][dL][dF][dQ][dF][dR])"
5,light,"SEQ ID NO: 62: on-bead peptide D-Pra-kftfr, hit of N-tL screen ([dPra][dK][dF][dT][dF][dR])"
6,light,"SEQ ID NO: 63: on-bead peptide D-Pra-lftfr, hit of N-tL screen ([dPra][dL][dF][dT][dF][dR])"
7,No color,"SEQ ID NO: 64: on-bead peptide D-Pra-rdrfr, hit of N-tL screen ([dPra][dR][dD][dR][dF][dR])"
